# Assay results from patent US10640536B2, “Polymyxins, compositions, methods of making and methods of use” (XELLIA PHARMACEUTICALS APS, priority 2013, dated 2020).
# Where two headings read alike, the source gives them in different places.
# Key:
# Format in all cases: cell-based
# [1] = system: Acinetobacter baumannii colistin-sensitive
# Procedure: (§1) The deca sulfomethylated polymyxins were tested for antibacterial activity by determining the minimal inhibitory concentration (MIC) by use of the broth dilution method according to EUCAST. […] indicator organism were used e.g. Acinetobacter baumannii colistin-sensitive, Klebsiella pneumonia #3010, Pseudomonas aeruginosa ATCC27853, Escherichia coli ATCC25922 and Escherichia coli DSA443. The tests were performed at, Statens Serum Institut, Copenhagen, Denmark department for Microbiology and Infection Control.
# (§2) The concentration range used was 0.125-128 μg/mL. Gentamicin was included as a positive quality control. Preparation of Gentamicin: 1000 μg/mL stock solution: 0.125 ml of a 40 mg/mL solution of Hexamicin+4.875 mL sterile water. 128 μg/mL: 0.640 mL of “1000 μg/mL stock solution”+4.36 mL Müeller-Hinton broth (MHB).
# (§3) Preparation of compounds disclosed herein: 5 mg/ml stock solution: one vial of 5 mg was added 1.0 mL sterile water. 512 μg/mL solution: 0.205 mL of “5 mg/mL stock solution”+1.795 mL MHB
# (§4) Preparation of inoculum: Fresh overnight colonies from 5% horse blood agar plates were suspended to a turbidity of 0.5 McFarland and further diluted in Müeller-Hinton broth to 1×10^6 CFU/ml. A total of 50 μL diluted bacterial suspension (Müeller Hinton BBL II-broth, SSI) was added to wells containing 50 μL of two fold compounds described herein or gentamicin dilutions. All compounds were tested in triplicate. The plates were incubated at 35° C., 16-20 h.
# [2] = system: Escherichia coli ATCC25922
# Procedure: as §1, §2, §3, §4
# [3] = system: Pseudomonas aeruginosa ATCC27853
# Procedure: as §1, §2, §3, §4
# [4] = system: Klebsiella pneumonia #3010
# Procedure: as §1, §2, §3, §4
# Escherichia coli DSA443 = assay: MIC by broth dilution method according to EUCAST; details: Table 3, 35° C., 16-20 h
# Procedure: as §1, §2, §3
# as §4, with “All compounds were tested in triplicate. The plates were incubated at 35° C., 16-20 h.” left out
# [5] = Table 3, broth dilution, 35° C., 16-20 h
Molecule,MIC A. baumannii ColistinS ([1]; colistin-sensitive),MIC E. coli ATCC 25922 ([2]; ATCC25922),MIC P. aeruginosa ATCC 27853 ([3]; ATCC27853),MIC K. pneumonia #3010 [4],also measured
"CC[C@H](C)CCCCC(=O)N[C@@H](CCN(CS(=O)(=O)O)CS(=O)(=O)O)C(=O)N[C@H](C(=O)N[C@@H](CCN(CS(=O)(=O)O)CS(=O)(=O)O)C(=O)N[C@H]1CCNC(=O)[C@H]([C@@H](C)O)NC(=O)[C@H](CCN(CS(=O)(=O)O)CS(=O)(=O)O)NC(=O)[C@H](CCN(CS(=O)(=O)O)CS(=O)(=O)O)NC(=O)[C@H](CC(C)C)NC(=O)[C@@H](CC(C)C)NC(=O)[C@H](CCN(CS(=O)(=O)O)CS(=O)(=O)O)NC1=O)[C@@H](C)O [Example 1, Penta (Nγ-Bis-Sulfomethyl) DAB1,3,5,8,9 Polymyxin E1]",4 µg/mL,8 µg/mL,8 µg/mL,16 µg/mL,–
"CC(C)CCCCC(=O)N[C@@H](CCN(CS(=O)(=O)O)CS(=O)(=O)O)C(=O)N[C@H](C(=O)N[C@@H](CCN(CS(=O)(=O)O)CS(=O)(=O)O)C(=O)N[C@H]1CCNC(=O)[C@H]([C@@H](C)O)NC(=O)[C@H](CCN(CS(=O)(=O)O)CS(=O)(=O)O)NC(=O)[C@H](CCN(CS(=O)(=O)O)CS(=O)(=O)O)NC(=O)[C@H](CC(C)C)NC(=O)[C@@H](CC(C)C)NC(=O)[C@H](CCN(CS(=O)(=O)O)CS(=O)(=O)O)NC1=O)[C@@H](C)O [Example 2, Penta (Nγ-Bis-Sulfomethyl) DAB1,3,5,8,9 Polymyxin E2]",4 µg/mL,8 µg/mL,8 µg/mL,16 µg/mL,–
"CC[C@H](C)CCCCC(=O)N[C@@H](CCN(CS(=O)(=O)O)CS(=O)(=O)O)C(=O)N[C@H](C(=O)N[C@@H](CCN(CS(=O)(=O)O)CS(=O)(=O)O)C(=O)N[C@H]1CCNC(=O)[C@H]([C@@H](C)O)NC(=O)[C@H](CCN(CS(=O)(=O)O)CS(=O)(=O)O)NC(=O)[C@H](CCN(CS(=O)(=O)O)CS(=O)(=O)O)NC(=O)[C@H]([C@@H](C)CC)NC(=O)[C@@H](CC(C)C)NC(=O)[C@H](CCN(CS(=O)(=O)O)CS(=O)(=O)O)NC1=O)[C@@H](C)O [Example 3, Penta (Nγ-Bis-Sulfomethyl) DAB1,3,5,8,9 Polymyxin E1-i]",4 µg/mL,8 µg/mL,8 µg/mL,16 µg/mL,–
"CC[C@H](C)CCCCC(=O)N[C@@H](CCN(CS(=O)(=O)O)CS(=O)(=O)O)C(=O)N[C@H](C(=O)N[C@@H](CCN)C(=O)N[C@H]1CCNC(=O)[C@H]([C@@H](C)O)NC(=O)[C@H](CCN(CS(=O)(=O)O)CS(=O)(=O)O)NC(=O)[C@H](CCN)NC(=O)[C@H](CC(C)C)NC(=O)[C@@H](CC(C)C)NC(=O)[C@H](CCN(CS(=O)(=O)O)CS(=O)(=O)O)NC1=O)[C@@H](C)O [PE1-(SM)6^1,5, 9, Tri (Nγ-Bis-Sulfomethyl) DAB1,5,9 Polymyxin E1]",–,8 µg/mL,8 µg/mL,–,–
"CC[C@H](C)CCCCC(=O)N[C@@H](CCN(CS(=O)(=O)O)CS(=O)(=O)O)C(=O)N[C@H](C(=O)N[C@@H](CCN)C(=O)N[C@H]1CCNC(=O)[C@H]([C@@H](C)O)NC(=O)[C@H](CCN(CS(=O)(=O)O)CS(=O)(=O)O)NC(=O)[C@H](CCN(CS(=O)(=O)O)CS(=O)(=O)O)NC(=O)[C@H](CC(C)C)NC(=O)[C@@H](CC(C)C)NC(=O)[C@H](CCN(CS(=O)(=O)O)CS(=O)(=O)O)NC1=O)[C@@H](C)O [PE1-(SM)8^1,5,8, 9, Tetra (Nγ-Bis-Sulfomethyl) DAB1,5,8,9 Polymyxin E1]",–,8 µg/mL,8 µg/mL,–,–
Gentamicin [reference compound],–,–,–,–,"MIC A. baumannii ColistinS [1, 5]: >32 µg/mL; MIC E. coli ATCC 25922 [2, 5]: 1 µg/mL; MIC of positive control against quality control limit ([2]; limit 0.25-1 μg/mL for E. coli ATCC 25922): within the limit; MIC P. aeruginosa ATCC 27853 [3, 5]: 1 µg/mL; MIC of positive control against quality control limit ([3]; limit 0.5-2 μg/mL for P. aeruginosa ATCC27853): within the limit; MIC K. pneumonia #3010 [4, 5]: 0.125 µg/mL; MIC E. coli DSA 443 (Escherichia coli DSA443): >32 µg/mL"
